# Experimental data reported in publication PMC5971061, “Differential Effects of Linkers on the Activity of Amphiphilic Tobramycin Antifungals” (Molecules : A Journal of Synthetic Chemistry and Natural …, 2018).
# Columns and labels:
# [1] = system: C. albicans ATCC 10231 (strain A); experiment: MIC, broth microdilution (CLSI M27-A3), yeast strain A; assay type: cell-based, Candida albicans
# Description: (§1) The final concentrations of compounds 3, 4, 7a, 7b, 9, and 16, as well as that of TOB tested in this study ranged from 0.24–62.5 μg/mL. CAS was used as a positive control and the final concentrations tested for CAS ranged from 0.03–31.3 μg/mL. Briefly, overnight yeast cultures were grown in yeast peptone dextrose (YPD) broth and the cell density was adjusted to an OD600 of 0.12 (~1 × 10^6 CFU/mL) by using a spectrophotometer. Yeast cell suspensions were further diluted to achieve 1–5 × 10^3 CFU/mL in RPMI 1640 medium, and 100 μL of these yeast cells was added to 96-well microtiter plates containing RPMI 1640 medium and titrated compounds. Each test was performed in triplicate. The plates were incubated at 35 °C for 48 h.
# [2] = system: C. albicans ATCC 64124 (strain B); experiment: MIC, broth microdilution (CLSI M27-A3), yeast strain B; assay type: cell-based; details: Candida albicans, ATCC64124; MIC-0, strain B, 35 °C 48 h
# Description: as §1
# [3] = system: C. albicans ATCC MYA-2876(S) (strain C); experiment: MIC, broth microdilution (CLSI M27-A3), yeast strain C; assay type: cell-based; details: Candida albicans; MIC-0, strain C, 35 °C 48 h
# Description: as §1
# [4] = system: C. albicans ATCC 90819(R) (strain D); experiment: MIC, broth microdilution (CLSI M27-A3), yeast strain D; assay type: cell-based; details: Candida albicans, ATCC90819; MIC-0, strain D, 35 °C 48 h
# Description: as §1
# [5] = system: C. albicans ATCC MYA-2310(S) (strain E); experiment: MIC, broth microdilution (CLSI M27-A3), yeast strain E; assay type: cell-based; details: Candida albicans; MIC-0, strain E, 35 °C 48 h
# Description: as §1
# [6] = system: C. albicans ATCC MYA-1237(R) (strain F); experiment: MIC, broth microdilution (CLSI M27-A3), yeast strain F; assay type: cell-based; details: Candida albicans; MIC-0, strain F, 35 °C 48 h
# Description: as §1
# [7] = system: C. albicans ATCC MYA-1003(R) (strain G); experiment: MIC, broth microdilution (CLSI M27-A3), yeast strain G; assay type: cell-based; details: Candida albicans; MIC-0, strain G, 35 °C 48 h
# Description: as §1
# [8] = system: Candida glabrata clinical isolate CG1; experiment: MIC, broth microdilution (CLSI M27-A3), CG1; assay type: cell-based; details: Nakaseomyces glabratus; MIC-0, CG1, 35 °C 48 h
# Description: as §1
# [9] = system: Candida glabrata clinical isolate CG2; experiment: MIC, broth microdilution (CLSI M27-A3), CG2; assay type: cell-based; details: Nakaseomyces glabratus; MIC-0, CG2, 35 °C 48 h
# Description: as §1
# [10] = system: Candida glabrata clinical isolate CG3; experiment: MIC, broth microdilution (CLSI M27-A3), CG3; assay type: cell-based; details: Nakaseomyces glabratus; MIC-0, CG3, 35 °C 48 h
# Description: as §1
# [11] = system: Candida glabrata ATCC 2001 (strain H); experiment: MIC, broth microdilution (CLSI M27-A3), yeast strain H; assay type: cell-based; details: Nakaseomyces glabratus, ATCC2001; MIC-0, strain H, 35 °C 48 h
# Description: as §1
# [12] = system: Candida krusei ATCC 6258 (strain I); experiment: MIC, broth microdilution (CLSI M27-A3), yeast strain I; assay type: cell-based; details: Pichia kudriavzevii, ATCC6258; MIC-0, strain I, 35 °C 48 h
# Description: as §1
# [13] = system: Candida parapsilosis ATCC 22019 (strain J); experiment: MIC, broth microdilution (CLSI M27-A3), yeast strain J; assay type: cell-based; details: Lodderomyces parapsilosis, ATCC22019; MIC-0, strain J, 35 °C 48 h
# Description: as §1
# [14] = system: Candida parapsilosis clinical isolate CP1; experiment: MIC, broth microdilution (CLSI M27-A3), CP1; assay type: cell-based; details: Lodderomyces parapsilosis; MIC-0, CP1, 35 °C 48 h
# Description: as §1
# [15] = system: Candida parapsilosis clinical isolate CP2; experiment: MIC, broth microdilution (CLSI M27-A3), CP2; assay type: cell-based; details: Lodderomyces parapsilosis; MIC-0, CP2, 35 °C 48 h
# Description: as §1
# [16] = system: Candida parapsilosis clinical isolate CP3; experiment: MIC, broth microdilution (CLSI M27-A3), CP3; assay type: cell-based; details: MIC-0, CP3, 35 °C 48 h
# Description: as §1
# [17] = system: Cryptococcus neoformans clinical isolate CN1; experiment: MIC, broth microdilution (CLSI M27-A3), CN1; assay type: cell-based; details: MIC-0, CN1, 35 °C 48 h
# Description: as §1
# [18] = system: Cryptococcus neoformans clinical isolate CN2; experiment: MIC, broth microdilution (CLSI M27-A3), CN2; assay type: cell-based; details: MIC-0, CN2, 35 °C 48 h
# Description: as §1
# [19] = system: Cryptococcus neoformans clinical isolate CN3; experiment: MIC, broth microdilution (CLSI M27-A3), CN3; assay type: cell-based; details: MIC-0, CN3, 35 °C 48 h
# Description: as §1
# [20] = system: Aspergillus flavus ATCC MYA-3631 (strain K); experiment: MIC, filamentous fungi (CLSI M38-A2), strain K; assay type: cell-based; details: Aspergillus flavus, 72 h, MIC-0, strain K, 35 °C 72 h; read-out: MIC
# Description: (§2) The spores were harvested from sporulating cultures growing on potato dextrose agar (PDA) by filtration through sterile glass wool and enumerated by using a hemocytometer (Hausser Scientific, Horsham, PA, USA) to obtain the desired inoculum size. Two-fold serial dilutions of compounds 3, 4, 7a, 7b, 9, and 16, as well as CAS and TOB were made in sterile 96-well microtiter plates to obtain the final concentration range of 0.24–62.5 μg/mL for TOB and TOB derivatives as well as 0.03–31.3 μg/mL for CAS in the RPMI 1640 medium. The spore suspensions were added to the wells to afford a final concentration of 5 × 10^5 spores/mL. The plates were incubated at 35 °C for 72 h. […] Each test was performed in triplicate.
# [21] = system: Aspergillus nidulans ATCC 38163 (strain L); experiment: MIC, filamentous fungi (CLSI M38-A2), strain L; assay type: cell-based; details: Aspergillus nidulans, ATCC38163, 72 h, MIC-0, strain L, 35 °C 72 h; read-out: MIC
# Description: as §2
# [22] = system: Aspergillus terreus ATCC MYA-3633 (strain M); experiment: MIC, filamentous fungi (CLSI M38-A2), strain M; assay type: cell-based; details: MIC-0, strain M, 35 °C 72 h
# Description: as §2
# [23] = system: seven C. albicans strains (A-G); experiment: MIC across the panel of seven C. albicans strains; assay type: cell-based; details: Candida albicans; across all seven C. albicans strains tested
# Description: as §1
# [24] = system: nine non-albicans Candida strains (H-J, CG1-3, CP1-3); experiment: MIC across the panel of nine non-albicans Candida strains; assay type: cell-based, Candida glabrata, Candida krusei, Candida parapsilosis
# Description: as §1
# [25] = system: C. albicans ATCC 10231 (strain A); experiment: Time-kill assay, strain A; assay type: cell-based, Candida albicans
# Description: (§3) Time-kill assays were used to assess the inhibitory efficiency of 7b against three yeast strains, C. albicans ATCC 10231 (strain A), C. parapsilosis ATCC 22019 (strain J), and C. neoformans clinical isolate CN1. The protocol for time-kill assays followed methods previously described with minor modifications. Yeast cultures were grown overnight in YPD broth at 35 °C with shaking (200 rpm). A working stock of fungal cells was made by diluting cultures in RPMI 1640 medium to an OD600 of 0.125, approximately 1 × 10^6 CFU/mL. From the working stock, 100 μL of cells was added to 4.9 mL of RPMI 1640 medium in sterile culture tubes, making the starting fungal cell concentration […]. Compounds were then added to the fungal cells. The treatment conditions included sterile control, growth control, TOB (parent; negative control), voriconazole (VOR) at 1× MIC (positive control), 7b at 1× and 4× MIC. The treated fungal cultures were incubated at 35 °C with shaking (200 rpm) for 24 h. The samples were taken from the different treatments at regular time points (0, 3, 6, 9, 12, and 24 h.) and plated in duplicates. For each time point, cultures were vortexed, 100 μL of culture was aspirated, and 10-fold serial dilutions were made in sterile ddH2O. From the appropriate dilutions, 100 μL of fungal suspension was spread on PDA plates and incubated at 35 °C for 48 h before the colony counts were determined. At 24 h, 50 μL of 1 mM resazurin was added to the treatments and incubated at 35 °C with rotation for 2 h in the dark for visual inspection. Experiments were performed in duplicate.
# [26] = system: C. neoformans (strain CN1); experiment: Time-kill assay, CN1; assay type: cell-based, Cryptococcus neoformans; details: controls TOB 15.6 μg/mL and VOR 1× MIC, 24-h period
# Description: as §3
compound,measurement,setting,value
"CCCCCCCCCCCCOCC1OC(OC2C(N)CC(N)C(OC3OC(CN)C(O)CC3N)C2O)C(O)C(N)C1O [Compound 16, O-3-Amino-3-deoxy-6-O-dodecyl-α-D-glucopyranosyl-(1→6)-O-[2,6-diamino-2,3,6-trideoxy-α-D-ribo-hexopyranosyl-(1→4)]-2-deoxy-D-streptamine]",MIC,"[1]; Candida albicans, ATCC10231, MIC-0, strain A, 35 °C 48 h",62.5 µg/mL
same,MIC,[2],62.5 µg/mL
same,MIC,[3],> 62.5 µg/mL
same,MIC,[4],62.5 µg/mL
same,MIC,[5],62.5 µg/mL
same,MIC,[6],62.5 µg/mL
same,MIC,[7],62.5 µg/mL
same,MIC,[8],> 62.5 µg/mL
same,MIC,[9],62.5 µg/mL
same,MIC,[10],62.5 µg/mL
same,MIC,[11],62.5 µg/mL
same,MIC,[12],31.3 µg/mL
same,MIC,[13],31.3 µg/mL
same,MIC,[14],62.5 µg/mL
same,MIC,[15],62.5 µg/mL
same,MIC,[16],62.5 µg/mL
same,MIC,[17],1.95 µg/mL
same,MIC,[18],0.975 µg/mL
same,MIC,[19],3.9 µg/mL
same,MIC,[20],> 62.5 µg/mL
same,MIC,[21],3.9 µg/mL
same,MIC,[22],> 62.5 µg/mL
same,MIC,[23],≥ 62.5 µg/mL
same,MIC,[24],31.3 to 62.5 µg/mL
"C[C@@H](c1ncncc1F)[C@](O)(Cn1cncn1)c1ccc(F)cc1F [VOR, voriconazole, reference compound]",1× MIC value,"[1]; as used in the time-kill study, strain A",1.0 µg/mL
same,reduction of CFU,"[25]; 1× MIC (7b 3.9 μg/mL; VOR 1.0 μg/mL), after 9 h of treatment",≥ 2 log10
same,"effect on growth (time-kill, in words)","[25]; 24-h period, TOB 15.6 μg/mL, VOR 1× MIC 1.0 μg/mL",maintained a fungistatic activity up to the 24-h period
same,"effect on growth (time-kill, in words)",[26],little to no growth inhibitory effect
